According to ChEMBL document CHEMBL5724806, “Unraveling interindividual differences and functional consequences of gut microbial metabolism of immunosuppressants” (2024):

Tests used:
Format in all cases: ADME
[1] = The drug is tested on Clostridium ramosum strain: DSM1402 for biotransformation under anaerobic condition. The drug concentrations were measured over 6 timepoints collected between 0 and 12 hours of incubation by liquid-chromatography-coupled mass spectrometry (LC–MS); parameters: dose 5 uM, timepoint 0, 1.5, 3, 6, 9, 12 hours; conditions: thomasclavelia ramosa, 5 µM
[2] = The drug is tested on the gut metagenome community of A-04 with ENA study accession number: PRJEB31790 for biotransformation under microaerobic condition. The drug concentrations were measured over 7 timepoints collected between 0 and 12 hours of incubation by liquid-chromatography-coupled mass spectrometry (LC–MS); parameters: dose 5 uM, timepoint 0, 0.75, 1.5, 3, 6, 9, 12 hours; conditions: 5 µM
[3] = The drug is tested on Bacteroides thetaiotaomicron strain: DSM2079 for biotransformation under anaerobic condition. The drug concentrations were measured over 6 timepoints collected between 0 and 12 hours of incubation by liquid-chromatography-coupled mass spectrometry (LC–MS); parameters: dose 5 uM, timepoint 0, 1.5, 3, 6, 9, 12 hours; conditions: 5 µM
[4] = The drug is tested on the gut metagenome community of A-07 with ENA study accession number: PRJEB31790 for biotransformation under microaerobic condition. The drug concentrations were measured over 7 timepoints collected between 0 and 12 hours of incubation by liquid-chromatography-coupled mass spectrometry (LC–MS); parameters: dose 5 uM, timepoint 0, 0.75, 1.5, 3, 6, 9, 12 hours; conditions: 5 µM
[5] = The drug is tested on Gemella morbillorum strain: DSM20572 for biotransformation under anaerobic condition. The drug concentrations were measured over 6 timepoints collected between 0 and 12 hours of incubation by liquid-chromatography-coupled mass spectrometry (LC–MS); parameters: dose 5 uM, timepoint 0, 1.5, 3, 6, 9, 12 hours; conditions: 5 µM
[6] = The drug is tested on the gut metagenome community of A-05 with ENA study accession number: PRJEB31790 for biotransformation under anaerobic condition. The drug concentrations were measured over 7 timepoints collected between 0 and 12 hours of incubation by liquid-chromatography-coupled mass spectrometry (LC–MS); parameters: dose 5 uM, timepoint 0, 0.75, 1.5, 3, 6, 9, 12 hours; conditions: 5 µM
[7] = The drug is tested on the gut metagenome community of A-09 with ENA study accession number: PRJEB31790 for biotransformation under microaerobic condition. The drug concentrations were measured over 7 timepoints collected between 0 and 12 hours of incubation by liquid-chromatography-coupled mass spectrometry (LC–MS); parameters: dose 5 uM, timepoint 0, 0.75, 1.5, 3, 6, 9, 12 hours; conditions: 5 µM
[8] = The drug is tested on Bacteroides stercoris strain: HM 1036 for biotransformation under anaerobic condition. The drug concentrations were measured over 6 timepoints collected between 0 and 12 hours of incubation by liquid-chromatography-coupled mass spectrometry (LC–MS); parameters: dose 5 uM, timepoint 0, 1.5, 3, 6, 9, 12 hours; conditions: 5 µM
[9] = The drug is tested on Lactobacillus fermentum strain: DSM20052 for biotransformation under anaerobic condition. The drug concentrations were measured over 6 timepoints collected between 0 and 12 hours of incubation by liquid-chromatography-coupled mass spectrometry (LC–MS); parameters: dose 5 uM, timepoint 0, 1.5, 3, 6, 9, 12 hours; conditions: limosilactobacillus fermentum, 5 µM
[10] = The drug is tested on Prevotella copri strain: DSM18205 for biotransformation under anaerobic condition. The drug concentrations were measured over 6 timepoints collected between 0 and 12 hours of incubation by liquid-chromatography-coupled mass spectrometry (LC–MS); parameters: dose 5 uM, timepoint 0, 1.5, 3, 6, 9, 12 hours; conditions: segatella copri, 5 µM
[11] = The drug is tested on the gut metagenome community of A-04 with ENA study accession number: PRJEB31790 for biotransformation under anaerobic condition. The drug concentrations were measured over 7 timepoints collected between 0 and 12 hours of incubation by liquid-chromatography-coupled mass spectrometry (LC–MS); parameters: dose 5 uM, timepoint 0, 0.75, 1.5, 3, 6, 9, 12 hours; conditions: 5 µM
[12] = The drug is tested on Dorea formicigenerans strain: DSM3992 for biotransformation under anaerobic condition. The drug concentrations were measured over 6 timepoints collected between 0 and 12 hours of incubation by liquid-chromatography-coupled mass spectrometry (LC–MS); parameters: dose 5 uM, timepoint 0, 1.5, 3, 6, 9, 12 hours; conditions: 5 µM
[13] = The drug is tested on Bacteroides caccae strain: DSM19024 for biotransformation under anaerobic condition. The drug concentrations were measured over 6 timepoints collected between 0 and 12 hours of incubation by liquid-chromatography-coupled mass spectrometry (LC–MS); parameters: dose 5 uM, timepoint 0, 1.5, 3, 6, 9, 12 hours; conditions: 5 µM
[14] = The drug is tested on the gut metagenome community of A-10 with ENA study accession number: PRJEB31790 for biotransformation under microaerobic condition. The drug concentrations were measured over 7 timepoints collected between 0 and 12 hours of incubation by liquid-chromatography-coupled mass spectrometry (LC–MS); parameters: dose 5 uM, timepoint 0, 0.75, 1.5, 3, 6, 9, 12 hours; conditions: 5 µM
[15] = The drug is tested on the gut metagenome community of A-07 with ENA study accession number: PRJEB31790 for biotransformation under anaerobic condition. The drug concentrations were measured over 7 timepoints collected between 0 and 12 hours of incubation by liquid-chromatography-coupled mass spectrometry (LC–MS); parameters: dose 5 uM, timepoint 0, 0.75, 1.5, 3, 6, 9, 12 hours; conditions: 5 µM
[16] = The drug is tested on Actinomyces naeslundi strain: DSM43013 for biotransformation under anaerobic condition. The drug concentrations were measured over 6 timepoints collected between 0 and 12 hours of incubation by liquid-chromatography-coupled mass spectrometry (LC–MS); parameters: dose 5 uM, timepoint 0, 1.5, 3, 6, 9, 12 hours; conditions: actinomyces naeslundii, 5 µM
[17] = The drug is tested on the gut metagenome community of P-04 with ENA study accession number: PRJEB31790 for biotransformation under anaerobic condition. The drug concentrations were measured over 7 timepoints collected between 0 and 12 hours of incubation by liquid-chromatography-coupled mass spectrometry (LC–MS); parameters: dose 5 uM, timepoint 0, 0.75, 1.5, 3, 6, 9, 12 hours; conditions: 5 µM
[18] = The drug is tested on the gut metagenome community of A-02 with ENA study accession number: PRJEB31790 for biotransformation under anaerobic condition. The drug concentrations were measured over 7 timepoints collected between 0 and 12 hours of incubation by liquid-chromatography-coupled mass spectrometry (LC–MS); parameters: dose 5 uM, timepoint 0, 0.75, 1.5, 3, 6, 9, 12 hours; conditions: 5 µM
[19] = The drug is tested on the gut metagenome community of P-01 with ENA study accession number: PRJEB31790 for biotransformation under anaerobic condition. The drug concentrations were measured over 7 timepoints collected between 0 and 12 hours of incubation by liquid-chromatography-coupled mass spectrometry (LC–MS); parameters: dose 5 uM, timepoint 0, 0.75, 1.5, 3, 6, 9, 12 hours; conditions: 5 µM
[20] = The drug is tested on Capnocytophaga ochracea strain: DSM7271 for biotransformation under microaerobic condition. The drug concentrations were measured over 6 timepoints collected between 0 and 12 hours of incubation by liquid-chromatography-coupled mass spectrometry (LC–MS); parameters: dose 5 uM, timepoint 0, 1.5, 3, 6, 9, 12 hours; conditions: 5 µM
[21] = The drug is tested on Parabacteroides merdae strain: DSM19495 for biotransformation under anaerobic condition. The drug concentrations were measured over 6 timepoints collected between 0 and 12 hours of incubation by liquid-chromatography-coupled mass spectrometry (LC–MS); parameters: dose 5 uM, timepoint 0, 1.5, 3, 6, 9, 12 hours; conditions: 5 µM
[22] = The drug is tested on Gemella haemolysans strain: DSM107751 for biotransformation under microaerobic condition. The drug concentrations were measured over 6 timepoints collected between 0 and 12 hours of incubation by liquid-chromatography-coupled mass spectrometry (LC–MS); parameters: dose 5 uM, timepoint 0, 1.5, 3, 6, 9, 12 hours; conditions: 5 µM
[23] = The drug is tested on the gut metagenome community of A-01 with ENA study accession number: PRJEB31790 for biotransformation under microaerobic condition. The drug concentrations were measured over 7 timepoints collected between 0 and 12 hours of incubation by liquid-chromatography-coupled mass spectrometry (LC–MS); parameters: dose 5 uM, timepoint 0, 0.75, 1.5, 3, 6, 9, 12 hours; conditions: 5 µM
[24] = The drug is tested on Akkermansia muciniphila strain: DSM22959 for biotransformation under anaerobic condition. The drug concentrations were measured over 6 timepoints collected between 0 and 12 hours of incubation by liquid-chromatography-coupled mass spectrometry (LC–MS); parameters: dose 5 uM, timepoint 0, 1.5, 3, 6, 9, 12 hours; conditions: 5 µM
[25] = The drug is tested on Bacteroides xylanisolvens strain: HM 722 for biotransformation under anaerobic condition. The drug concentrations were measured over 6 timepoints collected between 0 and 12 hours of incubation by liquid-chromatography-coupled mass spectrometry (LC–MS); parameters: dose 5 uM, timepoint 0, 1.5, 3, 6, 9, 12 hours; conditions: 5 µM

Compound | Bacterial Biotransformation [1] | Bacterial Biotransformation [2] | Bacterial Biotransformation [3] | Bacterial Biotransformation [4] | Bacterial Biotransformation [5] | Bacterial Biotransformation [6] | Bacterial Biotransformation [7] | Bacterial Biotransformation [8] | Bacterial Biotransformation [9] | Bacterial Biotransformation [10] | Bacterial Biotransformation [11] | Bacterial Biotransformation [12] | Bacterial Biotransformation [13] | Bacterial Biotransformation [14] | Bacterial Biotransformation [15] | Bacterial Biotransformation [16] | Bacterial Biotransformation [17] | Bacterial Biotransformation [18] | Bacterial Biotransformation [19] | Bacterial Biotransformation [20] | other results
C[C@@H]1C[C@H]2[C@@H]3CCC4=CC(=O)C=C[C@]4(C)[C@@]3(F)[C@@H](O)C[C@]2(C)[C@@]1(O)C(=O)CO [DEXAMETHASONE] | Compound NOT metabolized | Compound NOT metabolized | Compound NOT metabolized | Compound metabolized | Compound NOT metabolized | Compound NOT metabolized | Compound metabolized | Compound NOT metabolized | Compound NOT metabolized | Compound NOT metabolized | Compound metabolized | Compound NOT metabolized | Compound NOT metabolized | Compound NOT metabolized | Compound metabolized | Compound NOT metabolized | Compound NOT metabolized | Compound metabolized | Compound NOT metabolized | Compound NOT metabolized | Bacterial Biotransformation [21]: Compound NOT metabolized; Bacterial Biotransformation [22]: Compound NOT metabolized; Bacterial Biotransformation [23]: Compound NOT metabolized; Bacterial Biotransformation [24]: Compound NOT metabolized; Bacterial Biotransformation [25]: Compound NOT metabolized
COc1ccc([C@@H]2Sc3ccccc3N(CCN(C)C)C(=O)[C@@H]2OC(C)=O)cc1 [DILTIAZEM] | Compound NOT metabolized | Compound metabolized | Compound metabolized | Compound metabolized | Compound NOT metabolized | Compound metabolized | Compound metabolized | Compound NOT metabolized | Compound NOT metabolized | Compound NOT metabolized | Compound metabolized | Compound NOT metabolized | Compound NOT metabolized | Compound metabolized | Compound metabolized | Compound NOT metabolized | Compound NOT metabolized | Compound metabolized | Compound metabolized | Compound metabolized | Bacterial Biotransformation [21]: Compound metabolized; Bacterial Biotransformation [22]: Compound NOT metabolized; Bacterial Biotransformation [23]: Compound metabolized; Bacterial Biotransformation [24]: Compound NOT metabolized; Bacterial Biotransformation [25]: Compound metabolized
CO[C@H]1C[C@@H]2CC[C@@H](C)[C@@](O)(O2)C(=O)C(=O)N2CCCC[C@H]2C(=O)O[C@H]([C@H](C)C[C@@H]2CC[C@@H](OCCO)[C@H](OC)C2)CC(=O)[C@H](C)/C=C(\C)[C@@H](O)[C@@H](OC)C(=O)[C@H](C)C[C@H](C)/C=C/C=C/C=C/1C [EVEROLIMUS] | Compound NOT metabolized | Compound metabolized | Compound NOT metabolized | Compound metabolized | Compound NOT metabolized | Compound metabolized | Compound metabolized | Compound NOT metabolized | Compound NOT metabolized | Compound NOT metabolized | Compound metabolized | Compound metabolized | Compound NOT metabolized | Compound NOT metabolized | Compound metabolized | Compound NOT metabolized | Compound NOT metabolized | Compound metabolized | Compound NOT metabolized | Compound NOT metabolized | Bacterial Biotransformation [21]: Compound NOT metabolized; Bacterial Biotransformation [22]: Compound NOT metabolized; Bacterial Biotransformation [23]: Compound metabolized; Bacterial Biotransformation [24]: Compound NOT metabolized; Bacterial Biotransformation [25]: Compound NOT metabolized
